Results published in US11447504B2, “Macrocyclic chlorine substituted indole derivatives” (Bayer Aktiengesellschaft, priority 2017, dated 2022).
Counter-ions that a name gives are not always drawn. Like-named read-outs stand apart in the source and are kept apart here.

What was measured:
SUDHL5 [1] = assay: Induction of caspase-3/7 activity (Assay 4), SUDHL5; assay type: cell-based; details: SUDHL5 cells
Description: (§1) Induction of Caspase-3/7 Activity Upon Treatment of Cells with Selected Compounds
The BH3-domain of MCL-1 sequesters pro-apoptotic proteins, thereby inhibiting apoptosis. In contrast, MCL-1 inhibitors are expected to antagonize this effect leading to an increase in apoptosis, which can be determined by measuring the activity of caspase-3/7.
(§2) The activity of caspase-3/7 was determined in DLBCL (Diffuse large B-cell lymphoma) cell lines (SUDHL5 and SUDHL10) upon treatment with different compounds, using the Caspase-Glo®3/7 reagent from Promega (G8092).
(§3) Rim wells were excluded. The cells were incubated for 3 hours in a humidified incubator at 37° C.
(§4) For the evaluation of the results, the background measured with “medium-only” was subtracted from all other values.

SUDHL10 [2] = assay: Induction of caspase-3/7 activity (Assay 4), SUDHL10; assay type: cell-based; details: SUDHL10 cells
Description: as §1
In contrast, MCL-1 inhibitors are expected to antagonize this effect leading to an increase in apoptosis, which can be determined by measuring the activity of caspase-3/7.
as §2, §3, §4

SUDHL5 [3] = assay: Antiproliferation assay 7, SUDHL5; assay type: cell-based; details: SUDHL5 cells, CellTiter-Glo, read-out: Antiproli SUDHL5 IC50 (median)
Description: (§5) Assessment of the Anti-Proliferative Effect of Compounds in Different Cell Lines
(§6) The impact of compounds on the proliferation of different cell lines was assessed using the CellTiter-Glo® Luminescent Cell Viability reagent from Promega (G7573).
(§7) In parallel, cells were plated in a reference (day 0) plate for time zero determination.
(§8) Rim wells were excluded. The cells were incubated for 72 hours in a humidified incubator at 37° C. The day 0 plate was measured by adding 30 μL/well of CTG solution (CellTiter-Glo® Luminescent Cell Viability reagent, Promega G7573) to time zero wells in the reference plate followed by a 10 minutes incubation and luminescence reading at 0.1 ms. using the PHERAstar FS microplate reader (BMG Labtech).
(§9) After 72 hours incubation, the treated plates were measured in the same way as the day 0 plate mentioned above.

MV-4-11 = assay: Antiproliferation assay 7, MV-4-11; assay type: cell-based; details: MV-4-11 cells, CellTiter-Glo, read-out: Antiproli MV-4-11 IC50 median
Description: as §5, §6, §7, §8, §9

AMO-1 = assay: Antiproliferation assay 7, AMO-1; assay type: cell-based; details: AMO-1 cells, CellTiter-Glo, read-out: Antiproli AMO-1 IC50 median
Description: as §5, §6, §7, §8, §9

SUDHL5 [4] = assay: Induction of cytotoxicity (Assay 6), SUDHL5
Description: (§10) Assay 6 Induction of Cytotoxicity Upon Treatment of Cells with Selected Compounds
(§11) Therefore, cytotoxicity assays were run in parallel in SUDHL5 and SUDHL10 cells.
(§12) The different cell lines were plated in culture medium (RPMI 1640 [GIBCO #22400-089]supplemented with 10% Fetal Bovine Serum) at a density of 3,300 cells in 30 μL/well in a sterile, solid black, flat bottom, polystyrene, TC-treated 384-well microplate (Corning #3571) using Multidrop Combi Reagent Dispenser. As a control, medium without cells was also added to the plate. Cells were incubated in a humidified incubator at 37° C. overnight. […] Rim wells were excluded. The cells were incubated for 5 hours in a humidified incubator at 37° C. After this incubation, 30 μL of CellTiter-Glo® Luminescent Cell Viability reagent (Promega, G7573) was added to each well using the Multidrop Combi Reagent Dispenser, followed by 15 minutes incubation on a shaker at room temperature. Finally, luminescence was read at 0.1 ms, with a gain of 3000 using the PHERAstar FS microplate reader (BMG Labtech).

SUDHL10 [5] = assay: Induction of cytotoxicity (Assay 6), SUDHL10
Description: as §10, §11, §12

HMC-1-8 = assay: Antiproliferation assay 7, HMC-1-8; assay type: cell-based; details: 72 h, HMC-1-8 cells, CellTiter-Glo, read-out: Antiproli HMC-1-8 IC50 median
Description: as §5, §6, §7, §8, §9

[6] = Homo sapiens, SU-DHL-5, 3 h, Caspase-Glo 3/7, read-out: Caspase SUDHL5 EC50 (median)
[7] = Homo sapiens, SU-DHL10, 3 h, Caspase-Glo 3/7, read-out: Caspase SUDHL10 EC50 (median)
[8] = Homo sapiens, SU-DHL-5, 5 h, read-out: Cytotox SUDHL5 IC50 (median), SUDHL5 cells, 5 hours, CellTiter-Glo
[9] = Homo sapiens, SU-DHL10, 5 h, read-out: Cytotox SUDHL10 IC50 (median), SUDHL10 cells, 5 hours, CellTiter-Glo
[10] = 3 hours, Caspase-Glo 3/7, read-out: Caspase SUDHL5 EC50 (median)
[11] = 3 hours, Caspase-Glo 3/7, read-out: Caspase SUDHL10 EC50 (median)
[12] = read-out: Cytotox SUDHL5 IC50 (median), SUDHL5 cells, 5 hours, CellTiter-Glo
[13] = read-out: Cytotox SUDHL10 IC50 (median), SUDHL10 cells, 5 hours, CellTiter-Glo

Row | SMILES | EC50 (SUDHL5 [1]; [6]) [nM] | EC50 (SUDHL10 [2]; [7]) [µM] | IC50 (SUDHL5 [3]; Homo sapiens, SU-DHL-5, 72 h) [nM] | IC50 (MV-4-11; Homo sapiens, MV4-11, 72 h) [µM] | IC50 (AMO-1; Homo sapiens, AMO1, 72 h) [nM] | IC50 (SUDHL5 [4]; [8]) [nM] | IC50 (SUDHL10 [5]; [9]) [µM] | IC50 (HMC-1-8) [µM] | EC50 (SUDHL5 [1]; [10]) [nM] | EC50 (SUDHL10 [2]; [11]) [µM] | IC50 (SUDHL5 [3]; 72 hours) [nM] | IC50 (MV-4-11; 72 hours) [µM] | IC50 (AMO-1; 72 hours) [nM] | IC50 (SUDHL5 [4]; [12]) [nM] | IC50 (SUDHL10 [5]; [13]) [µM]
1 | CCc1c2c(nn1C)COCCCCn1c(C(=O)O)c(CCCOc3cccc4cc(F)ccc34)c3ccc(Cl)c-2c31 (racemic) [Example 36, (rac)-4-chloro-3-ethyl-7-{3-[(6-fluoronaphthalen-1-yl)oxy]propyl}-2-methyl-2,10,11,12,13,15-hexahydropyrazolo[4′,3′:9,10][1,6]oxazacycloundecino[8,7,6-hi]indole-8-carboxylic Acid] | 300 | 0.45 | 340 | 1.01 | 286 | 300 | 0.64 | – | – | – | – | – | – | – | –
2 | CCc1nn(C)c2c1-c1c(Cl)ccc3c(CCCOc4cccc5cc(F)ccc45)c(C(=O)O)n(c13)CCCCN(C)C2 (racemic) [Example 39, (rac)-4-chloro-3-ethyl-7-{3-[(6-fluoronaphthalen-1-yl)oxy]propyl}-1,14-dimethyl-10,11,12,13,14,15-hexahydro-1H-pyrazolo[3′,4′:8,9][1,6]diazacycloundecino[10,11,1-hi]indole-8-carboxylic Acid] | 200 | 0.39 | 200 | 0.442 | 359 | 230 | 0.41 | – | – | – | – | – | – | – | –
3 | CCc1nn(CCN2CCOCC2)c2c1-c1c(Cl)ccc3c(CCCOc4cccc5ccccc45)c(C(=O)O)n(c13)C/C=C\CN(C)C2 (racemic) [Example 42, (rac)-(11Z)-4-chloro-3-ethyl-14-methyl-1-[2-(morpholin-4-yl)ethyl]-7-{3-[(naphthalen-1-yl)oxy]-propyl}-10,13,14,15-tetrahydro-1H-pyrazolo[3′,4′:8,9][1,6]diazacycloundecino[10,11,1-hi]indole-8-carboxylic Acid] | 540 | 1.3 | 220 | 0.975 | 1380 | 600 | 1.6 | – | – | – | – | – | – | – | –
4 | CCc1nn(CCN2CCOCC2)c2c1-c1c(Cl)ccc3c(CCCOc4cccc5ccccc45)c(C(=O)O)n(c13)CCCCN(C)C2 (racemic) [Example 45, (rac)-4-chloro-3-ethyl-14-methyl-1-[2-(morpholin-4-yl)ethyl]-7-{3-[(naphthalen-1-yl)oxy]propyl}-10,11,12,13,14,15-hexahydro-1H-pyrazolo[3′,4′:8,9][1,6]diazacycloundecino[10,11,1-hi]indole-8-carboxylic Acid] | 290 | 0.46 | 530 | 0.628 | 593 | 400 | 0.75 | – | – | – | – | – | – | – | –
5 | CCc1c2c(nn1C)CCCCCCn1c(C(=O)O)c(CCCOc3cccc4ccccc34)c3ccc(Cl)c-2c31 (racemic) [Example 51, (rac)-4-chloro-3-ethyl-2-methyl-7-{3-[(naphthalen-1-yl)oxy]propyl}-10,11,12,13,14,15-hexahydro-2H-pyrazolo[4′,3′:4,5]azacycloundecino[3,2,1-hi]indole-8-carboxylic Acid] | 800 | 1.9 | 1600 | 1.71 | 2150 | 840 | 2 | – | – | – | – | – | – | – | –
6 | CCc1c2c(nn1C)CN(CC(F)(F)F)CCCCn1c(C(=O)O)c(CCCOc3cccc4cc(F)ccc34)c3ccc(Cl)c-2c31 (racemic) [Example 61, (rac) 4-chloro-3-ethyl-7-{3-[(6-fluoronaphthalen-1-yl)oxy]propyl}-2-methyl-14-(2,2,2-trifluoroethyl)-10,11,12,13,14,15-hexahydro-2H-pyrazolo[3′,4′:8,9][1,6]diazacycloundecino[10,11,1-hi]indole-8-carboxylic Acid] | 330 | – | – | – | 1870 | 540 | – | 7.15 | – | – | – | – | – | – | –
7 | CCc1c2c(nn1C)CN(C)CCCCn1c(C(=O)O)c(CCCOc3cccc4cc(F)ccc34)c3ccc(Cl)c-2c31 (single isomer, unassigned; enantiomer 2) [Example 7, 4-chloro-3-ethyl-7-{3-[(6-fluoronaphthalen-1-yl)oxy]propyl}-2,14-dimethyl-10,11,12,13,14,15-hexahydro-2H-pyrazolo[3′,4′:8,9][1,6]diazacycloundecino[10,11,1-hi]indole-8-carboxylic Acid (Enantiomer 2)] | – | – | – | – | – | – | – | – | 11000 | 16 | 4200 | 8.63 | 11100 | 7100 | 8.3
8 | CCc1c2c(nn1C)COCCCCn1c(C(=O)O)c(CCCOc3cccc4cc(F)ccc34)c3ccc(Cl)c-2c31 (single isomer, unassigned; enantiomer 2) [Example 38, (−)-4-chloro-3-ethyl-7-{3-[(6-fluoronaphthalen-1-yl)oxy]propyl}-2-methyl-2,10,11,12,13,15-hexahydropyrazolo[4′,3′:9,10][1,6]oxazacycloundecino[8,7,6-hi]indole-8-carboxylic acid-N-ethylethanamine Salt (Enantiomer 2)] | – | – | – | – | – | – | – | – | – | 13 | 1800 | 13.4 | 11500 | 4300 | 14
9 | CCc1nn(C)c2c1-c1c(Cl)ccc3c(CCCOc4cccc5cc(F)ccc45)c(C(=O)O)n(c13)CCCCN(C)C2 (single isomer, unassigned; enantiomer 2) [Example 41, 4-chloro-3-ethyl-7-{3-[(6-fluoronaphthalen-1-yl)oxy]propyl}-1,14-dimethyl-10,11,12,13,14,15-hexahydro-1H-pyrazolo[3′,4′:8,9][1,6]diazacycloundecino[10,11,1-hi]indole-8-carboxylic Acid (Enantiomer 2)] | – | – | – | – | – | – | – | – | 2800 | 9.4 | 2700 | 4.89 | 14900 | 4000 | 12
10 | CCc1nn(CCN2CCOCC2)c2c1-c1c(Cl)ccc3c(CCCOc4cccc5ccccc45)c(C(=O)O)n(c13)C/C=C\CN(C)C2 (single isomer, unassigned; enantiomer 2) [Example 44, (11Z)-4-chloro-3-ethyl-14-methyl-1-[2-(morpholin-4-yl)ethyl]-7-{3-[(naphthalen-1-yl)oxy]propyl}-10,13,14,15-tetrahydro-1H-pyrazolo[3′,4′:8,9][1,6]diazacycloundecino[10,11,1-hi]indole-8-carboxylic Acid-Ammonia Salt (Enantiomer 2)] | – | – | – | – | – | – | – | – | 9400 | 13 | 7200 | 11.7 | 15500 | 8100 | 15
11 | CCc1nn(CCN2CCOCC2)c2c1-c1c(Cl)ccc3c(CCCOc4cccc5ccccc45)c(C(=O)O)n(c13)CCCCN(C)C2 (single isomer, unassigned; enantiomer 2) [Example 47, 4-chloro-3-ethyl-14-methyl-1-[2-(morpholin-4-yl)ethyl]-7-{3-[(naphthalen-1-yl)oxy]propyl}-10,11,12,13,14,15-hexahydro-1H-pyrazolo[3′,4′:8,9][1,6]diazacycloundecino[10,11,1-hi]indole-8-carboxylic Acid (Enantiomer 2)] | – | – | – | – | – | – | – | – | 11000 | 22 | 8000 | 5.65 | – | 10000 | 17
